The data set in a line: Skin irritant activity in mouse ear assessed as irritant units per ear after 24 hrs. The data set is classed as ADME, tissue-based. Conditions: topical_or_ocular.

Each structure is given as a SMILES string.

For `CCC(=O)OC1C(C)CC2(OC(C)=O)C1[C@@H](OC(C)=O)[C@@]13CO[C@@](C)(C2OC(C)=O)C1C1C(C[C@]1(C)OC(C)=O)C(OC(=O)C(C)C)C3=O` (some centres not stated), the Activity was over 1000 µg. `CCC(=O)OC1C(C)CC2(OC(C)=O)C1[C@@H](OC(C)=O)[C@@]13CO[C@@](C)(C2OC(C)=O)C1C1C(C[C@]1(C)OC(C)=O)C(OC(=O)c1ccccc1)C3=O` (some centres not stated): the Activity is over 1000 µg.

For the origin of these results see ChEMBL document CHEMBL1148099, “New myrsinol-related polyfunctional pentacyclic diterpene esters from roots of Euphorbia prolifera” (J Nat Prod, 1995).
